In one experiment the test system is RAR and RXR receptors. Briefly: Co-transfection assay, RAR and RXR receptors overall. The format is cell-based. The following applies: for potency profile versus 9-cis retinoic acid: pan-agonist compounds; for receptor subfamily selectivity: RAR versus RXR. On the procedure: (§1) Utilizing the "cis-trans" or "co-transfection" assay described by Evans et al., Science, 240:889-95 (May 13, 1988), the disclosure of which is herein incorporated by reference, the retinoid compounds of the present invention were tested and found to have strong, specific activity as either selective RAR agonists, selective RXR agonists, or as pan-agonist activators of both RAR and RXR receptors. This assay is described in further detail in U.S. Pat. Nos. 4,981,784 and 5,071,773, the disclosures of which are incorporated herein by reference.
(§2) In the co-transfection assay, a cloned cDNA for an IR (e.g., human RARα, RARβ, RXRγ) under the control of a constitutive promoter (e.g., the SV 40 promoter) is introduced by transfection (a procedure to induce cells to take up foreign genes) into a background cell substantially devoid of endogenous IRs. This introduced gene directs the recipient cells to make the IR protein of interest. A second gene is also introduced (co-transfected) into the same cells in conjunction with the IR gene. This second gene, comprising the cDNA for a reporter protein, such as firefly luciferase (LUC), controlled by an appropriate hormone responsive promoter containing a hormone response element (HRE). This reporter plasmid functions as a reporter for the transcription-modulating activity of the target IR. Thus, the reporter acts as a surrogate for the products (mRNA then protein) normally expressed by a gene under control of the target receptor and its native hormone.
(§3) The co-transfection assay can detect small molecule agonists or antagonists of target IRs. Exposing the transfected cells to an agonist ligand compound increases reporter activity in the transfected cells. This activity can be conveniently measured, e.g., by increasing luciferase production, which reflects compound-dependent, IR-mediated increases in reporter transcription. […] . Increasing concentrations of a suspected antagonist will decrease the reporter signal (e.g., luciferase production). The co-transfection assay is therefore useful to detect both agonists and antagonists of specific IRs. Furthermore, it determines not only whether a compound interacts with a particular IR, but whether this interaction mimics (agonizes) or blocks (antagonizes) the effects of the native regulatory molecules on target gene expression, as well as the specificity and strength of this interaction.
To determine RAR and/or RXR agonist activity of the compounds of the present invention, the CV-1 cells were transiently transfected by calcium phosphate coprecipitation according to the procedure of Berger et al., 41 J.Steroid Biochem. Mol. Biol., 733 (1992) with the following receptor expressing plasmids: pRShRARα: Giguere et al., 330 Nature, 624 (1987); pRShRARβ and pRShRARγ, Ishikawa et al., 4 Mol. Endocrin., 837 (1990); pRShRXRα, Mangelsdorf et al., 345 Nature, 224 (1990); and pRSmRXRβ and pRSmRXRγ, Mangelsdorf et al., 6 Genes & Devel., 329 (1992), the disclosures of which are herein incorporated by reference. Each of these receptor expressing plasmids was co-transfected at a concentration of 5 ng/well, along with a basal reporter plasmid at 100 ng/well, the internal control plasmid pRS-β-Gal at 50 ng/well and filler DNA, pGEM at 45 ng/well.

A further experiment has as its system RARs. Briefly: Co-transfection assay, RARs overall. In kind it is cell-based, human. The protocol: as §1, §2
as §3, with “interaction. […]” for “interaction.”

In the case of `CC(/C=C/CC1CCCc2cc3c(cc21)C(C)(C)CCC3(C)C)=C\C(=O)O` (racemic) [Compound 124b, (2E,4E)-3-Methyl-6-(1,2,3,4,5,6,7,8-octahydro-5,5,8,8-tetramethylanthracen-1-yl)hexa-2,4-dienoic acid], the “potency profile versus 9-cis retinoic acid” value in the experiment with RAR and RXR receptors was “superior potency profiles”. `CC(/C=C/C=C1/CCCc2cc3c(cc21)C(C)(C)CCC3(C)C)=C\C(=O)O` [Compound 101b, (2E,4E)-3-Methyl-6-[(Z)-3,4,5,6,7,8-hexahydro-5,5,8,8-tetramethyl-2H-anthracen-1-ylidene]hexa-2,4-dienoic acid]: the “potency profile versus 9-cis retinoic acid” value in the experiment on RAR and RXR receptors is on record as “superior potency profiles”. Moreover, the “RAR activity” value in the experiment on RARs was “extremely potent RAR active”. As to `CC(/C=C/C=C1\CCCc2cc3c(cc21)C(C)(C)CCC3(C)C)=C\C(=O)O` [Compound 109b, (2E,4E)-3-Methyl-6-[(E)-3,4,5,6,7,8-hexahydro-5,5,8,8-tetramethyl-2H-anthracen-1-ylidene]hexa-2,4-dienoic acid], in the experiment on RAR and RXR receptors, the receptor subfamily selectivity entry was “RAR selective”. The “RAR activity” value with RARs is “extremely potent RAR active”.

With `CC(/C=C/C=C1\CCOc2cc3c(cc21)C(C)(C)CCC3(C)C)=C\C(=O)O` [Compound 119b, (2E,4E)-3-Methyl-6-[(E)-2,3,6,7,8,9-hexahydro-6,6,9,9-tetramethyl-benzo[g]chromen-4-ylidene]hexa-2,4-dienoic acid], the receptor subfamily selectivity entry in the experiment on RAR and RXR receptors is listed as “RAR selective”. Moreover, the “RAR activity” value in the experiment on RARs is reported as “extremely potent RAR active”. Regarding `CC(/C=C/C=C1/CCOc2cc3c(cc21)C(C)(C)CCC3(C)C)=C\C(=O)O` [Compound 144b], in the experiment on RAR and RXR receptors, the “potency profile versus 9-cis retinoic acid” value is “superior potency profiles”. Besides, in the experiment with RARs, the “RAR activity” value is “extremely potent RAR active”.
